Several values for one entry are separate records, joined by “and”; a condition that tells them apart may be missing. Identical values can stand only once. One block for each compound: values may come before it. Activity calls are given as the source filed them. The rule behind the calls is not given here.
Tests used:
[1] = target: T1, 5-hydroxytryptamine receptor 2C (Homo sapiens, UniProt P28335); assay: Displacement of [3H]-ketanserin from human 5-HT2C receptor by competitive radioligand binding assay
T1 sequence (P28335 whole entry): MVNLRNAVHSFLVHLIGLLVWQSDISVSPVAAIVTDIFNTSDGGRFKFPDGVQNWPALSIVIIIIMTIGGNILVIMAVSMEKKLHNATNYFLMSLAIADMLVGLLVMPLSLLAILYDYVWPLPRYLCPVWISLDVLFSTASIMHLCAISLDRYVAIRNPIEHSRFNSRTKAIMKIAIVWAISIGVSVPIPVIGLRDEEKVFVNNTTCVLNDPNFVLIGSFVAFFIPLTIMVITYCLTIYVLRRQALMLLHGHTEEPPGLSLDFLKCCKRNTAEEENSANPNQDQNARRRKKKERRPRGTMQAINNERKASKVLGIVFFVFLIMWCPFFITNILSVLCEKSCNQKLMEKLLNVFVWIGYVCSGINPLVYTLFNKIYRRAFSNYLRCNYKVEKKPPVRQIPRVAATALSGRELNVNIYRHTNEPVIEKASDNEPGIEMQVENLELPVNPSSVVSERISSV

[2] = target: 5-hydroxytryptamine receptor 2B (Homo sapiens, UniProt P41595); assay: Displacement of [3H]-ketanserin from human 5-HT2B receptor by competitive radioligand binding assay
Sequence of 5-hydroxytryptamine receptor 2B (P41595 whole entry): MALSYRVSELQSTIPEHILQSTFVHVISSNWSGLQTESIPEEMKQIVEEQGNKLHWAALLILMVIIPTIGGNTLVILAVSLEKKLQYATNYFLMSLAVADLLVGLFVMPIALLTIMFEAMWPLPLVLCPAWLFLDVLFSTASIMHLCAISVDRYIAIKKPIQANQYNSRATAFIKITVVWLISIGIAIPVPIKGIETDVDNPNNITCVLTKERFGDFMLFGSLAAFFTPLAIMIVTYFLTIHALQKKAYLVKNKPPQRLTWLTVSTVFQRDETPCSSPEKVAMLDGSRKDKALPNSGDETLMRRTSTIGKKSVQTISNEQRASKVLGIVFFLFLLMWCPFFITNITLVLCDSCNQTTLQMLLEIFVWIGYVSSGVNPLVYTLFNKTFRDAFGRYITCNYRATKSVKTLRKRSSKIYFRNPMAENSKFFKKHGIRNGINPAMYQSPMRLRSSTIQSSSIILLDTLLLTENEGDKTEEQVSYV

[3] = target: T2, 5-hydroxytryptamine receptor 2A (Homo sapiens, UniProt P28223); assay: Displacement of [3H]-ketanserin from human 5-HT2A receptor by competitive radioligand binding assay
T2 sequence (P28223 whole entry): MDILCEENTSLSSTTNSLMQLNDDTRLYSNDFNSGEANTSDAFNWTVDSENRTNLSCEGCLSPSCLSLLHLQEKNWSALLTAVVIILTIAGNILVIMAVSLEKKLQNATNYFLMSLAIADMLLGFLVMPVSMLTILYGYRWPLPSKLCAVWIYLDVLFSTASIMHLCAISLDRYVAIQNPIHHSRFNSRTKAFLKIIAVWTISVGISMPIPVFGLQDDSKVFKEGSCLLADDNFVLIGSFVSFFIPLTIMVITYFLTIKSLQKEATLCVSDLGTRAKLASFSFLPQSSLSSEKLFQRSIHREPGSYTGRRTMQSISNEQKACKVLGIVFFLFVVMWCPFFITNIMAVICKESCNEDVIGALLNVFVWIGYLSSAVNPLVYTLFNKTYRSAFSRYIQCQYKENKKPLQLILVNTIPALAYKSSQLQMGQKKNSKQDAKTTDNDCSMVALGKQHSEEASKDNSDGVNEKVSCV

[4] = target: 5-hydroxytryptamine receptor 7 (Rattus norvegicus, UniProt P32305); assay: Displacement of [3H]-CT from rat 5-HT7 receptor expressed in HEK293 cells by competitive radioligand binding assay; assay type: cell-based
Sequence of 5-hydroxytryptamine receptor 7 (Rattus norvegicus, UniProt P32305) (P32305 whole entry): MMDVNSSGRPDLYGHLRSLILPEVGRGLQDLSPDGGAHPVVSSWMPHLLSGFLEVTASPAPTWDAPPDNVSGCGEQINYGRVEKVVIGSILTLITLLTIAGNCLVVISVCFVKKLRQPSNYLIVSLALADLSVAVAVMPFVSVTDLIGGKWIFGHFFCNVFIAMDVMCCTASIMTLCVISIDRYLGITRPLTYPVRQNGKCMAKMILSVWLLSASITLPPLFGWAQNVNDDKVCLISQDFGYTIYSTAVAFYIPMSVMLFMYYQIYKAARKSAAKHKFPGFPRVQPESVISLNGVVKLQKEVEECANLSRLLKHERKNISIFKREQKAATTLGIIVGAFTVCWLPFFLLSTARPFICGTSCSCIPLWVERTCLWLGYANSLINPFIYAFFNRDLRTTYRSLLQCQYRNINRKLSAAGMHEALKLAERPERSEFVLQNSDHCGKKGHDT

[5] = target: T3, Adrenergic receptor alpha-1 (Rattus norvegicus, UniProt P15823+P23944+P43140); assay: Displacement of […] from alpha1 adrenergic receptor in rat cortex membrane incubated for 60 mins by competitive radioligand binding assay; assay type: cell membranes
T3 sequence (P15823 whole entry): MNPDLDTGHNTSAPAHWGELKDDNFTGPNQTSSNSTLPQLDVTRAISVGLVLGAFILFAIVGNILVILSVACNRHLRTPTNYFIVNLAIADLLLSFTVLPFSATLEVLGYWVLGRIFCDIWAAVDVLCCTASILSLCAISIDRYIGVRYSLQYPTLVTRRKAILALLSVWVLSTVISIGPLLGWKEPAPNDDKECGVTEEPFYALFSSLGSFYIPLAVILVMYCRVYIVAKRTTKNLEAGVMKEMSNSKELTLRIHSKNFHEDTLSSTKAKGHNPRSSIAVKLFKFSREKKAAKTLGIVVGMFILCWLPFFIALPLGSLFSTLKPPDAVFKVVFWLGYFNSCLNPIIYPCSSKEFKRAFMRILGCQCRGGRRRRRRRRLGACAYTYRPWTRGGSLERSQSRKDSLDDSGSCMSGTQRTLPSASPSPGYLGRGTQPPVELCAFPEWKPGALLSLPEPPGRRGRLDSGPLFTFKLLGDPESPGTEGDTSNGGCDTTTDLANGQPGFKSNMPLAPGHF
T3 sequence (P23944 whole entry): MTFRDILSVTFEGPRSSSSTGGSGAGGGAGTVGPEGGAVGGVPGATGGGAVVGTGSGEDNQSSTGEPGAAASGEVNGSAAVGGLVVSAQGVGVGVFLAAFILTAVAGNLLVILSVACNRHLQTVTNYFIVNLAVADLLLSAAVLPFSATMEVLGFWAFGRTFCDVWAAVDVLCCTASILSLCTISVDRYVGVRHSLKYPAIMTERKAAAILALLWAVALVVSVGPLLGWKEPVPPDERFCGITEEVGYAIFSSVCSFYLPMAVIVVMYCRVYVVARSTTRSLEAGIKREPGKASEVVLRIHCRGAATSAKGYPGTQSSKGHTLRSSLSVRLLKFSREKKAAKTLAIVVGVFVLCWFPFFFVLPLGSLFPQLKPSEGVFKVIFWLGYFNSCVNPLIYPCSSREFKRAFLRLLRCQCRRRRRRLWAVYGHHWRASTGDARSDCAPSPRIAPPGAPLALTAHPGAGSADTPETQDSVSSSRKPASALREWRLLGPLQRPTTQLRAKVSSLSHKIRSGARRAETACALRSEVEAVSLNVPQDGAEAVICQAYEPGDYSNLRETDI
T3 sequence (P43140 whole entry): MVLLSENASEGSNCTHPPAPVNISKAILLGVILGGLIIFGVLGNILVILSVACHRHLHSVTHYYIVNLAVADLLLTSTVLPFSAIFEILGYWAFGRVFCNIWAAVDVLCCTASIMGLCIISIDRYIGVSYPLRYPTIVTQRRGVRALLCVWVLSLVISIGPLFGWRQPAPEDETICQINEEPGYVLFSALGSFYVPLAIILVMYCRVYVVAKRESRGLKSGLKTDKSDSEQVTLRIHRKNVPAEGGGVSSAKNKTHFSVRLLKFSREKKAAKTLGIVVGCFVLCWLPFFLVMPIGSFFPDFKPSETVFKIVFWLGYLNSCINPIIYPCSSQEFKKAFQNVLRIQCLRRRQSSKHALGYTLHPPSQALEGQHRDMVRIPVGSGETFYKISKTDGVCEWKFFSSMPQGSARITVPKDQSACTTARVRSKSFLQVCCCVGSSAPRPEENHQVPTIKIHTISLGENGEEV

[6] = Ex vivo receptor occupancy at 5-HT2A receptor in orally dosed rat frontal cortex measured after 1 hr; assay type: functional; settings: po
[7] = In vivo antagonist activity at 5-HT2A receptor in po dosed mouse assessed as inhibition of DOI-induced head twitch measured after 60 mins; assay type: functional; settings: 1 h
[8] = system: Rattus norvegicus; assay: In vivo antagonist activity at 5-HT7 receptor in rat assessed as maximal inhibition of 5-CT induced hypothermia at 0.3 mg/kg, po compound administered 20 mins prior to 5-CT injection; assay type: functional, organism-based
[9] = In vivo antagonist activity at 5-HT7 receptor in po dosed rat assessed as inhibition of 5-CT induced hypothermia compound administered 20 mins prior to 5-CT injection and measured after 1 hr; assay type: functional; settings: 1.333 h, time 80 min
[10] = Ratio of drug level in rat brain to plasma at 10 mg/kg, po; assay type: ADME, organism-based; settings: brain and plasma, read-out: BPR
[11] = Cmax in non-human primates at 5 mg/kg, po; assay type: ADME, organism-based; parameters: route oral, dose 5 mg/kg; settings: in vivo
[12] = Half life in non-human primates at 5 mg/kg, po; assay type: ADME, organism-based; settings: in vivo
[13] = Tmax in non-human primates at 5 mg/kg, po; assay type: ADME, organism-based; settings: in vivo
[14] = Tmax in dog at 10 mg/kg, po; assay type: ADME, organism-based, Canis lupus familiaris; settings: in vivo
[15] = Half life in rat brain at 10 mg/kg, po; assay type: ADME, organism-based
[16] = Oral bioavailability in rat; assay type: ADME, organism-based; settings: in vivo
[17] = Oral bioavailability in mouse; assay type: ADME, organism-based; settings: in vivo
[18] = Oral bioavailability in dog; assay type: ADME, organism-based, Canis lupus familiaris; settings: in vivo
[19] = Oral bioavailability in monkey; assay type: ADME, organism-based, Macaca mulatta; settings: rhesus monkey, in vivo
[20] = Cmax in dog at 10 mg/kg, po; assay type: ADME, organism-based, Canis lupus familiaris; parameters: route oral, dose 10 mg/kg; settings: in vivo
[21] = Half life in dog at 10 mg/kg, po; assay type: ADME, organism-based, Canis lupus familiaris; settings: in vivo
[22] = Clearance in rat brain at 10 mg/kg, po; assay type: ADME, organism-based; settings: in vivo
[23] = Cmax in rat brain at 10 mg/kg, po; assay type: ADME, organism-based; parameters: route oral, dose 10 mg/kg
[24] = AUC in rat brain at 10 mg/kg, po; assay type: ADME, organism-based; parameters: dose 10 mg/kg
[25] = Tmax in rat brain at 10 mg/kg, po; assay type: ADME, organism-based
[26] = Half life in rat plasma at 10 mg/kg, po; assay type: ADME, organism-based
[27] = Clearance in rat plasma at 10 mg/kg, po; assay type: ADME, organism-based
[28] = Tmax in rat plasma at 10 mg/kg, po; assay type: ADME, organism-based
[29] = Cmax in rat plasma at 10 mg/kg, po; assay type: ADME, organism-based; parameters: route oral, dose 10 mg/kg
[30] = AUC in rat plasma at 10 mg/kg, po; assay type: ADME, organism-based; parameters: dose 10 mg/kg
[31] = Half life in rat at 3 mg/kg, sc; assay type: ADME, organism-based; settings: in vivo
[32] = Clearance in rat at 3 mg/kg, sc; assay type: ADME, organism-based; settings: in vivo
[33] = AUC in rat at 3 mg/kg, sc; assay type: ADME, organism-based; parameters: dose 3 mg/kg; settings: in vivo
[34] = Cmax in rat at 3 mg/kg, sc; assay type: ADME, organism-based; parameters: route subcutaneous, dose 3 mg/kg; settings: in vivo
[35] = Tmax in rat at 3 mg/kg, sc; assay type: ADME, organism-based; settings: in vivo
[36] = Half life in rat at 3 mg/kg, po; assay type: ADME, organism-based; settings: in vivo
[37] = AUC in rat at 3 mg/kg, po; assay type: ADME, organism-based; parameters: dose 3 mg/kg; settings: in vivo
[38] = Clearance in rat at 3 mg/kg, po; assay type: ADME, organism-based; settings: in vivo
[39] = Cmax in rat at 3 mg/kg, po; assay type: ADME, organism-based; parameters: route oral, dose 3 mg/kg; settings: in vivo
[40] = Half life in rat at 1 mg/kg, iv; assay type: ADME, organism-based; settings: in vivo
[41] = Tmax in rat at 3 mg/kg, po; assay type: ADME, organism-based; settings: in vivo
[42] = Clearance in rat at 1 mg/kg, iv; assay type: ADME, organism-based; settings: in vivo
[43] = AUC in rat at 1 mg/kg, iv; assay type: ADME, organism-based; parameters: dose 1 mg/kg; settings: in vivo
[44] = system: Cytochrome P450; assay: Inhibition of CYP450 (unknown origin) up to 10 uM; assay type: ADME, protein assay; settings: human
[45] = Metabolic stability in rat liver microsomes assessed as half life; assay type: ADME, Microsome
[46] = Metabolic stability in human liver microsomes assessed as half life; assay type: ADME, Microsome
[47] = Protein binding in human plasma assessed as unbound fraction; assay type: ADME, cell-free
[48] = Protein binding in rat plasma assessed as unbound fraction; assay type: ADME, cell-free
[49] = target: 5-hydroxytryptamine receptor 7 (Homo sapiens, UniProt P34969); assay: Inverse agonist activity at 5-HT7 receptor (unknown origin) by cAMP functional assay
Sequence of 5-hydroxytryptamine receptor 7 (Homo sapiens, UniProt P34969) (P34969 whole entry): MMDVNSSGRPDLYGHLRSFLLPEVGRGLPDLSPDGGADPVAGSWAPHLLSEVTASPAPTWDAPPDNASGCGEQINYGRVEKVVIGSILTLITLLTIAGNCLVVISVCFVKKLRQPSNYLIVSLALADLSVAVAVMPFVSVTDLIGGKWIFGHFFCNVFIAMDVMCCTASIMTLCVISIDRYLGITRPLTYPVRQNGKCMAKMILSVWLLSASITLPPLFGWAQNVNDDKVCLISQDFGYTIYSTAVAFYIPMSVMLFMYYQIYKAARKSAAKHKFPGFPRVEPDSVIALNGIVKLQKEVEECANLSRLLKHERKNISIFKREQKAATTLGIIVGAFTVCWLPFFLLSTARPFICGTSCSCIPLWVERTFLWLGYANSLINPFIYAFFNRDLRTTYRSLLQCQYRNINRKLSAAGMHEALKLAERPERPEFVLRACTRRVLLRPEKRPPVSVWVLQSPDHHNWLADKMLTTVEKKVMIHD

[50] = target: T2, 5-hydroxytryptamine receptor 2A; assay: Antagonist activity at 5-HT2A receptor (unknown origin) by calcium mobilization assay; assay type: functional; settings: filed as antagonist
[51] = Efflux ratio of apparent permeability in human Caco2 cells; assay type: ADME, cell-based; settings: Caco-2
[52] = Toxicity in rat assessed as effect on body temperature at 0.03 to 1 mg/kg, po; assay type: organism-based; settings: in vivo, dose 0.03-1 mg/kg
[53] = Plasma concentration that yields to require for maximal inhibition of 5-HT7 receptor mediated hypothermia in 5-CT-stimulated rat at 0.3 mg/kg, po compound administered 20 mins prior to 5-CT injection; assay type: organism-based
[54] = Ratio of plasma concentration that yields to require for inhibition of alpha1 adrenergic receptor-mediated mydriasis in phenylephrine-stimulated rat to MED for inhibition of 5-HT7 receptor mediated hypothermia in po dosed 5-CT-stimulated rat; assay type: organism-based

Compound: CC(C)n1nc2c(c1-c1ccc(Cl)cc1Cl)CCNCC2
Ki [1]: 220 nM
Ki [2]: 43 nM
Ki [3]: 15 nM
Ki [4]: 400 nM

Compound: CC(C)n1nc2c(c1-c1ccc(C#N)cc1)CCNCC2
Ki [5]: 240 nM
Ki [1]: 390 nM
Ki [3]: 5 nM
Ki [4]: 90 nM

More lines, main results first:

Ki [5]: 10000 nM
Ki [1]: 9000 nM
Ki [2]: 15 nM
Ki [3]: 600 nM
Ki [4]: 150 nM
Compound: c1ccc(-c2c3c(nn2-c2ccccc2)CCNCC3)cc1

Ki [5]: 4 nM
Ki [2]: 2 nM
Ki [3]: 1 nM
Compound: Cc1ccc(-c2c3c(nn2C(C)C)CCNCC3)cc1

Kp [10]: > 1
Cmax [11]: 300 ng/mL
half-life [12]: 11.4 h
Tmax [13]: 3 h
Tmax [14]: 0.5 h
half-life [15]: 6.3 h
bioavailability [16]: 100%
bioavailability [17]: 98%
bioavailability [18]: 98%
bioavailability [19]: 72%
Cmax [20]: 2000 ng/mL
half-life [21]: 10.6 h
CL [22]: 0.1 L/h
Cmax [23]: 1680 ng/mL and 6.1 µM
AUC [24]: 89 µM·h
Tmax [25]: 1 h
half-life [26]: 6 h
CL/F [27]: 3.33 mL/min
Tmax [28]: 1 h
Cmax [29]: 1080 ng/mL and 3.9 µM
AUC [30]: 57 µM·h
half-life [31]: 3.9 h
CL/F [32]: 6.67 mL/min
AUC [33]: 7.7 µM·h
Cmax [34]: 260 ng/mL and 940 nM
Tmax [35]: 0.75 h
half-life [36]: 4.3 h
AUC [37]: 9.2 µM·h
CL/F [38]: 6.67 mL/min
Cmax [39]: 190 ng/mL and 700 nM
half-life [40]: 3.4 h
Tmax [41]: 1.7 h
clearance [42]: 6.67 mL/min
AUC [43]: 2.8 µM·h
inhibition (INH) [44]: Not Active
half-life [45]: > 1 h
half-life [46]: > 1 h
fraction unbound [47]: 0.3
fraction unbound [48]: 0.2
IC50 [49]: 100 nM
pKb [50]: 8.1
Ki [5]: 170 nM
Ki [1]: 49 nM
Ki [2]: 19 nM
Ki [3]: 8 nM
Ki [4]: 8 nM
efflux ratio [51]: 1.3
concentration at 20 min [53]: 27 ng/mL
Compound: CC(C)n1nc2c(c1-c1ccc(F)cc1)CCNCC2
ED50 [6]: 0.8 mg/kg
ED50 [7]: 0.3 mg/kg
inhibition [8]: Active
ED50 [9]: 0.05 mg/kg
Activity [52]: Non-Toxic
selectivity ratio [54]: 30
